Test results reported in patent US11649242B2, “Pyrrolopyrrole compositions as pyruvate kinase (PKR) activators” (FORMA Therapeutics, Inc., priority 2017, dated 2023).

Columns and labels:
Type in all cases: biochemical
PKR(wt) = PKR(wt) (Homo sapiens, UniProt P30613); assay: Luminescence Assay Protocol (Kinase Glo Plus), PKR(Wt/without FBP); conditions: without FBP; for activation at 1.54 µM: read-out: I - AC50 LUM KGP woFBP % Fold @ 1.54 μM mean; for AC50: gmean, read-out: G - AC50 LUM KGP woFBP AC50 μM gmean; for H - AC50 LUM KGP woFBP MAX % FOLD mean / Emax: highest % fold increase at any concentration; for Emax: read-out: H - AC50 LUM KGP woFBP MAX % FOLD mean
Chain of PKR(wt) (P30613 whole entry): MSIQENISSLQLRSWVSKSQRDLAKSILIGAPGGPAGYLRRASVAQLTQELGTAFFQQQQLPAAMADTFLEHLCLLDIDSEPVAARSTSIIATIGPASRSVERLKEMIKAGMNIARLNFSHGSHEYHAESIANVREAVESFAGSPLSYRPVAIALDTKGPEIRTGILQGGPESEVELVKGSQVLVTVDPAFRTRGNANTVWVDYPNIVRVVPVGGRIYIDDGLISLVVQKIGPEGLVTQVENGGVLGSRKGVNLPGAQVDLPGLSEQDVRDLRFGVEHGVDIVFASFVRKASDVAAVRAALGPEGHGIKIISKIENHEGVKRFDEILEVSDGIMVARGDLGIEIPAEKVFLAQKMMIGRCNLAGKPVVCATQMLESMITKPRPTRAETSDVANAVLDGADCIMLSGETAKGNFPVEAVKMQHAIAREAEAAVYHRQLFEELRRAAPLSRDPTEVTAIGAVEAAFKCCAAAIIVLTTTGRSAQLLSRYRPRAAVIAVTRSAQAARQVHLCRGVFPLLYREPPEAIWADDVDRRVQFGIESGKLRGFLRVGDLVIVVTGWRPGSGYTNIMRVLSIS
Description: (§1) Example 47: PKR(Wt/without FBP), PKR(G332S/with FBP), PKR(R510Q/without FBP)
(§2) The phosphorylation of Adenosine-5′-diphosphate (ADP) by various mutants of PKR was determined by the Kinase Glo Plus Assay (Promega) in the presence or absence of FBP [D-Fructose-1,6-diphosphate; BOC Sciences, CAS: 81028-91-3] as follows. Unless otherwise indicated, all reagents were purchased from Sigma-Aldrich. All reagents were prepared in buffer containing 50 mM Tris-HCl, 100 mM KCl, 5 mM MgCl2, and 0.01% Triton X100, 0.03% BSA, and 1 mM DTT. Enzyme and PEP [Phospho(enol) pyruvic acid] were added at 2× to all wells of an assay-ready plate containing serial dilutions of test compounds or DMSO vehicle. Final enzyme concentrations for PKR(wt), PKR(R510Q), and PKR(G332S) were 0.8 nM, 0.8 nM, and 10 nM respectively. Final PEP concentration was 100 μM. The Enzyme/PEP mixture was incubated with compounds for 30 minutes at RT before the assay was initiated with the addition of 2×ADP [Adenosine-5′-diphosphate] and KinaseGloPlus. Final concentration of ADP was 100 μM. […] For assays containing FBP, that reagent is added at 30 μM upon reaction initiation. Reactions were allowed to progress for 45 minutes at RT until luminescence was recorded by the BMG PHERAstar FS Multilabel Reader. All compounds were tested in triplicate at concentrations ranging from 42.5 μM to 2.2 nM in 0.83% DMSO.
(§3) Luminescence values were converted to % Fold increase by normalizing to the average of the DMSO control and multiplying by 100. Max, min, slope and AC50 were determined by the standard four parameter fit algorithm of ActivityBase XE Runner. Compounds were evaluated with three parameters—AC50, MAX % Fold, and % Fold@1.54 μM (FIG. 1). The AC50 value for a compound is the concentration […] corresponding to the midway between the maximum and minimum values of the four parameter logistic curve fit (i.e., at which the % fold increase along the four parameter logistic curve fit is halfway between MAX % Fold and MIN % Fold (% Fold Midpoint)), MAX % Fold is the highest fold increase observed at any concentration of compound, and % Fold@1.54 μM is the fold increase at a compound concentration of 1.54 μM. The parameter % Fold@1.54 μM was selected to capture elements of both the AC50 and MAX % Fold and to provide a ranking based on both potency and effect. The compound concentration of 1.54 μM was chosen as one that can optimally differentiate the set of compounds based on the range of activities observed.
(§4) As set forth in Tables 6 and 7 below, AC50 values (columns A, D, G) are defined as follows: ≤0.1 μM (+++); >0.1 μM and ≤1.0 μM (++); >1.0 μM and ≤40 μM (+); >40 μM (0). Max % FOLD values (columns B, E, H) are defined as follows: ≤75% (+); >75% and ≤250% (++); >250% and ≤500% (+++). % Fold@1.54 μM values (columns C, F, I) are defined as follows: ≤75% (+); >75% and ≤250% (++); >250% and ≤500% (+++).

PKR(R510Q) = PKR(R510Q) (Homo sapiens, UniProt P30613, R510Q); assay: Luminescence Assay Protocol (Kinase Glo Plus), PKR(R510Q/without FBP); conditions: PKRR510Q, without FBP; for activation at 1.54 µM: read-out: F - AC50 LUM KGP woFBP % Fold @ 1.54 μM mean; for AC50: gmean, read-out: D - AC50 LUM KGP woFBP AC50 μM gmean; for E - AC50 LUM KGP woFBP MAX % FOLD mean / Emax: highest % fold increase at any concentration; for Emax: read-out: E - AC50 LUM KGP woFBP MAX % FOLD mean
Chain of PKR(R510Q) (P30613 whole entry R510Q): as the sequence (P30613 whole entry) above, with R510Q counted along it
Description: as §1, §2, §3, §4

PKR(G332S) = PKR(G332S) (Homo sapiens, UniProt P30613, G332S); assay: Luminescence Assay Protocol (Kinase Glo Plus), PKR(G332S/with FBP); conditions: PKRG332S, with FBP; for activation at 1.54 µM: read-out: C - AC50 LUM KGP FBP % Fold @ 1.54 μM mean; for AC50: gmean, read-out: A - AC50 LUM KGP FBP AC50 μM gmean; for Emax: read-out: B - AC50 LUM KGP FBP MAX % FOLD mean
Chain of PKR(G332S) (P30613 whole entry G332S): as the sequence (P30613 whole entry) above, with G332S counted along it
Description: as §1, §2, §3, §4

[1] = highest % fold increase at any concentration

Row | Structure (SMILES) | activation at 1.54 µM (PKR(wt); compound 1.54 μM) [%] | AC50 (PKR(wt)) [µM] | H - AC50 LUM KGP woFBP MAX % FOLD mean (PKR(wt)) | activation at 1.54 µM (PKR(R510Q); compound 1.54 μM) [%] | AC50 (PKR(R510Q)) [µM] | E - AC50 LUM KGP woFBP MAX % FOLD mean (PKR(R510Q)) | activation at 1.54 µM (PKR(G332S); compound 1.54 μM) [%] | AC50 (PKR(G332S)) [µM] | Emax (PKR(G332S); [1]) [%] | I - AC50 LUM KGP woFBP % Fold @ 1.54 μM mean (PKR(wt); compound 1.54 μM) | F - AC50 LUM KGP woFBP % Fold @ 1.54 μM mean (PKR(R510Q); compound 1.54 μM) | C - AC50 LUM KGP FBP % Fold @ 1.54 μM mean (PKR(G332S); compound 1.54 μM) | B - AC50 LUM KGP FBP MAX % FOLD mean (PKR(G332S); [1]) | Emax (PKR(wt)) [%] | Emax (PKR(R510Q)) [%]
1 | O=C(C1CCCOC1)N1CC2=C(C1)CN(S(=O)(=O)c1ccccn1)C2 (single isomer, unassigned) [Example 44, (R or S)-(5-(pyridin-2-ylsulfonyl)-3,4,5,6-tetrahydropyrrolo[3,4-c]pyrrol-2(1H)-yl)(tetrahydro-2H-pyran-3-yl)methanone] | 75 to 250 | 1 to 40 | ++ (>75% and ≤250% (++)) | 75 to 250 | > 40 | ++ (>75% and ≤250% (++)) | 75 to 250 | 1 to 40 | 75 to 250 |  |  |  |  |  | 
2 | O=C(C1CCCOC1)N1CC2=C(C1)CN(S(=O)(=O)c1ccccn1)C2 (single isomer, unassigned) [Example 45, (S or R)-(5-(pyridin-2-ylsulfonyl)-3,4,5,6-tetrahydropyrrolo[3,4-c]pyrrol-2(1H)-yl)(tetrahydro-2H-pyran-3-yl)methanone] |  | 0.1 to 1 | +++ (>250% and ≤500% (+++)) |  | 1 to 40 | +++ (>250% and ≤500% (+++)) |  | 0.1 to 1 |  | ++ (>75% and ≤250% (++)) | ++ (>75% and ≤250% (++)) | ++ (>75% and ≤250% (++)) | ++ (>75% and ≤250% (++)) |  | 
3 | CC(C)(CO)C(=O)N1CC2=C(C1)CN(S(=O)(=O)c1ccc3ncsc3c1)C2 [Example 19, 1-(5-(benzo[d]thiazol-6-ylsulfonyl)-3,4,5,6-tetrahydropyrrolo[3,4-c]pyrrol-2(1H)-yl)-3-hydroxy-2,2-dimethylpropan-1-one] | 75 to 250 | 0.1 to 1 |  | 75 to 250 | 0.1 to 1 |  | 75 to 250 | > 40 | 75 to 250 |  |  |  |  | 75 to 250 | 250 to 500
4 | CC(C)(O)[C@@H](C(=O)N1CC2=C(C1)CN(S(=O)(=O)c1ccc(OC(F)F)cc1)C2)c1ccccc1 [Example 28, (S)-1-(5-((4-(difluoromethoxy)phenyl)sulfonyl)-3,4,5,6-tetrahydropyrrolo[3,4-c]pyrrol-2(1H)-yl)-3-hydroxy-3-methyl-2-phenylbutan-1-one] | 75 to 250 | 0.1 to 1 |  | 75 to 250 | 1 to 40 |  | 75 to 250 | ≤ 0.1 | 75 to 250 |  |  |  |  | 250 to 500 | 250 to 500
5 | O=C([C@H](CO)c1ccccc1)N1CC2=C(C1)CN(S(=O)(=O)c1ccc3ncsc3c1)C2 [Example 29, (S)-1-(5-(benzo[d]thiazol-6-ylsulfonyl)-3,4,5,6-tetrahydropyrrolo[3,4-c]pyrrol-2(1H)-yl)-3-hydroxy-2-phenylpropan-1-one] | 250 to 500 | ≤ 0.1 |  | 250 to 500 | ≤ 0.1 |  | 75 to 250 | ≤ 0.1 | 75 to 250 |  |  |  |  | 250 to 500 | 250 to 500
6 | O=C([C@@H](CO)c1ccccc1)N1CC2=C(C1)CN(S(=O)(=O)c1ccc3ncsc3c1)C2 [Example 30, (R)-1-(5-(benzo[d]thiazol-6-ylsulfonyl)-3,4,5,6-tetrahydropyrrolo[3,4-c]pyrrol-2(1H)-yl)-3-hydroxy-2-phenylpropan-1-one] | 250 to 500 | 0.1 to 1 |  | 250 to 500 | 0.1 to 1 |  | 75 to 250 | 0.1 to 1 | 75 to 250 |  |  |  |  | 250 to 500 | 250 to 500

Further lines, results first:

Row | activation at 1.54 µM (PKR(wt); compound 1.54 μM) [%] | AC50 (PKR(wt)) [µM] | H - AC50 LUM KGP woFBP MAX % FOLD mean (PKR(wt)) | activation at 1.54 µM (PKR(R510Q); compound 1.54 μM) [%] | AC50 (PKR(R510Q)) [µM] | E - AC50 LUM KGP woFBP MAX % FOLD mean (PKR(R510Q)) | activation at 1.54 µM (PKR(G332S); compound 1.54 μM) [%] | AC50 (PKR(G332S)) [µM] | Emax (PKR(G332S); [1]) [%] | I - AC50 LUM KGP woFBP % Fold @ 1.54 μM mean (PKR(wt); compound 1.54 μM) | F - AC50 LUM KGP woFBP % Fold @ 1.54 μM mean (PKR(R510Q); compound 1.54 μM) | C - AC50 LUM KGP FBP % Fold @ 1.54 μM mean (PKR(G332S); compound 1.54 μM) | B - AC50 LUM KGP FBP MAX % FOLD mean (PKR(G332S); [1]) | Emax (PKR(wt)) [%] | Emax (PKR(R510Q)) [%] | Structure (SMILES)
7 | 75 to 250 | 0.1 to 1 |  |  | 0.1 to 1 |  |  | ≤ 0.1 |  |  |  |  |  | 75 to 250 |  | CC(C)(CO)C(=O)N1CC2=C(C1)CN(S(=O)(=O)c1ccc(OC(F)F)cc1)C2 [Example 7, 1-(5-((4-(difluoromethoxy)phenyl)sulfonyl)-3,4,5,6-tetrahydropyrrolo[3,4-c]pyrrol-2(1H)-yl)-3-hydroxy-2,2-dimethylpropan-1-one]
8 | 250 to 500 | 0.1 to 1 |  | 75 to 250 | 1 to 40 |  | 75 to 250 | 0.1 to 1 | 75 to 250 |  |  |  |  | 250 to 500 | 250 to 500 | O=C([C@@H]1CCOC1)N1CC2=C(C1)CN(S(=O)(=O)c1ccc(OC(F)F)cc1)C2 [Example 14, (R)-(5-((4-(difluoromethoxy)phenyl)sulfonyl)-3,4,5,6-tetrahydropyrrolo[3,4-c]pyrrol-2(1H)-yl)(tetrahydrofuran-3-yl)methanone]
9 | 75 to 250 | 0.1 to 1 |  | 75 to 250 | 1 to 40 |  | 75 to 250 | > 40 | 75 to 250 |  |  |  |  | 75 to 250 | 250 to 500 | O=C(C1CCCOC1)N1CC2=C(C1)CN(S(=O)(=O)c1ccc3ncsc3c1)C2 (centres unmarked) [Example 15, (5-(benzo[d]thiazol-6-ylsulfonyl)-3,4,5,6-tetrahydropyrrolo[3,4-c]pyrrol-2(1H)-yl)(tetrahydro-2H-pyran-3-yl)methanone]
10 | 75 to 250 | 0.1 to 1 |  | 75 to 250 | 1 to 40 |  | 75 to 250 | 0.1 to 1 | 75 to 250 |  |  |  |  | 250 to 500 | 250 to 500 | O=C([C@H]1CCOC1)N1CC2=C(C1)CN(S(=O)(=O)c1ccc(OC(F)F)cc1)C2 [Example 16, (S)-(5-((4-(difluoromethoxy)phenyl)sulfonyl)-3,4,5,6-tetrahydropyrrolo[3,4-c]pyrrol-2(1H)-yl)(tetrahydrofuran-3-yl)methanone]
11 | 75 to 250 | 0.1 to 1 |  | 75 to 250 | 1 to 40 |  | 75 to 250 | 0.1 to 1 | 75 to 250 |  |  |  |  | 250 to 500 | 250 to 500 | O=C([C@@H]1CCOC1)N1CC2=C(C1)CN(S(=O)(=O)c1ccc3ncsc3c1)C2 [Example 20, (R)-(5-(benzo[d]thiazol-6-ylsulfonyl)-3,4,5,6-tetrahydropyrrolo[3,4-c]pyrrol-2(1H)-yl)(tetrahydrofuran-3-yl)methanone]
12 | 250 to 500 | ≤ 0.1 |  | 250 to 500 | ≤ 0.1 |  | 75 to 250 | ≤ 0.1 | 75 to 250 |  |  |  |  | 250 to 500 | 250 to 500 | O=C([C@H](CO)c1ccccc1)N1CC2=C(C1)CN(S(=O)(=O)c1ccc(OC(F)F)cc1)C2 [Example 31, (S)-1-(5-((4-(difluoromethoxy)phenyl)sulfonyl)-3,4,5,6-tetrahydropyrrolo[3,4-c]pyrrol-2(1H)-yl)-3-hydroxy-2-phenylpropan-1-one]
